Results taken from patent US20240192233A1, “DRUG DISCOVERY ASSAY TO SCREEN FOR COMPOUNDS” (FUNDACIÓ INSTITUT DE RECERCA BIOMÈDICA (IRB BARCELONA), priority 2021, published 2024).

Legend:
Format in all cases: biochemical
AR-NTD [1] = target: T1, AR-NTD (Homo sapiens, UniProt P10275); assay: Screening with the condensation assay, amplitude of the absorbance as parameter; conditions: screening concentration 100 μM; references DMSO and EPI-001 at 200 μM; mean of 3 measurements
T1 construct: a domain of the androgen receptor localised at its N-terminus, amino acids 1-558
T1 sequence (P10275 1-558): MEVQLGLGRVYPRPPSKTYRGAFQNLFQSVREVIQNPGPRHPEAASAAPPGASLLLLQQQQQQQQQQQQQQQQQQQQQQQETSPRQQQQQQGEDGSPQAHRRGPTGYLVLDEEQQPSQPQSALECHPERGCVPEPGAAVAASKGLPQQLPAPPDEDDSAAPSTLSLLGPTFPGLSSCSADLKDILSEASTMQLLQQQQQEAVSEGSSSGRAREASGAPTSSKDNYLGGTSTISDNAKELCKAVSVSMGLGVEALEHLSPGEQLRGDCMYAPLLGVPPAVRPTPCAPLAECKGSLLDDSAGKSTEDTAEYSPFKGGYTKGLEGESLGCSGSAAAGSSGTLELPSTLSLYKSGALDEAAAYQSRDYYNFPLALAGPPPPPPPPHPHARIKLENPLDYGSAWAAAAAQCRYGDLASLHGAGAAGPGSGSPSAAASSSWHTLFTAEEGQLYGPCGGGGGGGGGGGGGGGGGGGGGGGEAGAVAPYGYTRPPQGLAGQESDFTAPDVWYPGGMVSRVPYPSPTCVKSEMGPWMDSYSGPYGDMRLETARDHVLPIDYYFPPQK
Procedure: FIG. 9. Results of screening for molecules using the condensation assay with amplitude of the absorbance as a parameter determining the activity of tested molecules. First two bars show data points corresponding to the controls that are used to calculate the activity: negative reference (DMSO), positive reference (EPI-001 at 200 μM). The rest of the bars corresponds to the activity of three screened molecules at a screening concentration 100 μM. […] Mean values of 3 measurements and the standard deviation are plotted.
Please note that, with reference to this aspect of the invention, the inventors have shown that this parameter could also be used to select hits (see FIG. 9).

AR-NTD [2] = target: T1, AR-NTD; assay: Screening with the condensation (TSA) assay, percentage of shift versus reference shift; conditions: screening concentration 100 μM; negative reference DMSO; mean of 3 measurements
Procedure: FIG. 7. […] First two bars show data points corresponding to the controls that are used to calculate the activity: Negative reference (DMSO), Positive reference (EPI-001 at 200 μM). […] Mean values of 3 measurements and the standard deviation are plotted.
In this sense, in FIG. 7 the first two bars show data points corresponding to the controls that are used to calculate the activity: • Negative reference—DMSO • Positive reference—EPI-001 at 200 μM
Briefly, in order to quantitatively rank the tested compounds with regards to their efficacy to enhance the AR-NTD condensation in vitro and compare it to that of EPI-001, we measured the cloud point temperature (Tc) of each of the samples at constant protein concentration (100 μM). Then, we calculated the percentage of shift caused by the compound in comparison to the reference shift, the one caused by 200 μM EPI-001. Next, we plotted the normalised shift versus the compound concentration.

AR-NTD [3] = target: T1, AR-NTD; assay: Temperature-dependent turbidity shift assay (TSA), critical temperature Tc; conditions: 500 mM NaCl
Procedure: FIG. 6. a) Apparent absorbance (at λ=350 nm) measurement at increasing temperatures of 30 μM ARNTD in 20 mM Hepes 7.4, 500 mM NaCl, 2 mM TCEP buffer in the absence (grey) and presence of 5 eq of EPI-001 (red) or BADGE (green). Dashed lines indicate condensation onset and calculated Tc values are depicted in the insert. b) Tc obtained using the TSA assay of AR-NTD at different concentrations in 20 mM Hepes 7.4, 500 mM NaCl, 2 mM TCEP buffer in the absence (grey) and presence of 5 eq of EPI-001 (red) or BADGE (green). Mean values of 3 independent measurements and the standard deviation are plotted.
To quantify the effects of EPI-001 on the AR-NTD phase separation, we implemented a temperature-dependent turbidity shift assay (TSA). In this assay we measure the sample turbidity as a reporter of condensation and determine the temperature at which a given sample demixes, the Critical Temperature. When droplets are formed, they scatter light and cause an abrupt increase in turbidity. Therefore, values above 0 absorbance units (AU) in the TSA assay indicate condensation. We measure turbidity as the apparent absorbance at a wavelength in which the absorption of the other components in the sample is minimal, in our case 350 nm. Addition of 5 equivalents (eq) of EPI-001 to a 30 μM AR-NTD and 500 mM NaCl sample lowered the Tc of the AR-NTD by 10° C. (FIG. 5a). […]

Structure (SMILES)	hit classification by activity based on amplitude of the absorbance, cut-off 25% (AR-NTD [1])	hit classification by activity (percentage of Tc shift relative to 200 μM EPI-001), cut-off 25% (AR-NTD [2])	enhancement of AR-NTD condensation at all protein concentrations tested (left arm of phase diagram) (AR-NTD [3]; 5 eq of compound, various AR-NTD concentrations)	lowering of the Tc of the AR-NTD (AR-NTD [3]; 5 equivalents of compound, 30 μM AR-NTD, absorbance at 350 nm) [°C]
CC(C)(c1ccc(OC[C@H](O)CNS(C)(=O)=O)cc1)c1cc(Cl)c(OC[C@H](O)CCl)c(Cl)c1 [EPI-7170]	hits	hits		
CC(C)(c1ccc(OCC2CO2)cc1)c1ccc(OCC2CO2)cc1 (stereo not drawn) [BADGE]	inactive	non-hit	not	3
